# From patent publication US20260242440A1, “NOVEL MEANS TO MODULATE NMDA RECEPTOR-MEDIATED TOXICITY” (FUNDAMENTAL PHARMA GMBH, priority 2018, published 2026)
# Key:
# [1] = tested on: retinal ganglion cells (RGCs); experiment: NMDA-induced degeneration of retinal ganglion cells (RGCs) in mice; assay type: in vivo, mouse; settings: 40 mg/kg i.p. at -16h, -3h, 0 h, +24 h, intravitreal NMDA 20 nmol, 7 days
# Method: The inventors also assessed, whether compound P4 can protect retinal ganglion cells against NMDA-induced degeneration. For this purpose, 28 C57BL/6J mice (25±3.5 g) were randomly allocated to two groups. All mice received vehicle (sunflower oil containing 5% ethanol) or P4 (40 mg/kg, dissolved in sunflower oil containing 5% ethanol) through intraperitoneal injection at −16h, −3h, 0 h, +3 h and +24 h in a volume of 50 μL each injection. At 0 h, mice received 20 nmol of NMDA (total volume 2.0 μL) by intravitreal injection in the left eye and saline (total volume 2.0 μL) in the right eye. Both eyes were removed from euthanized mice 7 days after intravitreal injections and fixed in formalin for 15 min before retinas were dissected and processed for whole mount immunostaining. Retinas were incubated in blocking solution (10% FBS, 1% Triton-X 100 in PBS) for 6 h, followed by 24 h incubation with anti-Brn3a antibody in blocking solution at 4° C. Retinas were washed 3 times with PBS and incubated with Donkey anti-rabbit Alexa Fluor-594 for 24 h at room temperature. Retinas were washed again, cut and mounted onto slides. […] Brn3a-positive cells were identified and counted with a macro in Cellprofiler. […]
# TRPM4 channel = molecular target: T1, TRPM4 channel (Homo sapiens, UniProt Q8TD43); experiment: TRPM4 channel function, whole-cell patch clamp in PC3 cells; assay type: cell-based; settings: 10 μM compound, pre-incubated 30-60 min
# T1 construct: PC3 cells are known to express TRPM4 channels; endogenous in cells; host or cells: PC3 prostate cancer cell line
# From the text: To assess any direct impact of compound P4 and compound P15 on TRPM4 channel function independent of NMDA receptors, the inventors used the prostate cancer cell line PC3 and patch clamp recordings. PC3 cells are known to express TRPM4 channels (C. Holzmann et al., Oncotarget. 6, 41783-93 (2015)). TRPM4 currents in turn are characterized by their calcium dependence and outward rectification (P. Launay et al., Cell. 109, 397-407 (2002)). Briefly, whole-cell patch clamp recordings were made from PC3 cells plated on 12 mm round coverslips secured with a platinum ring in a recording chamber (OAC-1, Science Products GmbH) mounted on a fixed-stage upright microscope (BX51WI, Olympus). […] Patch electrodes (3-4 MΩ) were made from 1.5 mm borosilicate glass and filled with cesium-based solutions (in mM: CsCl, 145; NaCl, 8; HEPES, 10; MgCl2, 1; plus either EGTA, 0.2 for a free Ca^2+ concentration of zero; or EGTA, 10 and CaCl2), 9.4 for a calculated free Ca^2+ concentration of 10 μM; Maxchelator, Stanford University). Recordings were made with a Multiclamp 700B amplifier, digitized through a Digidata 1550B and acquired and analyzed using pClamp 10 software (Molecular Devices). Access resistance (range: 10-20 MΩ) was monitored regularly during voltage clamp recordings and data was rejected if changes greater than 20% occurred.
# T1 sequence (Q8TD43 whole entry): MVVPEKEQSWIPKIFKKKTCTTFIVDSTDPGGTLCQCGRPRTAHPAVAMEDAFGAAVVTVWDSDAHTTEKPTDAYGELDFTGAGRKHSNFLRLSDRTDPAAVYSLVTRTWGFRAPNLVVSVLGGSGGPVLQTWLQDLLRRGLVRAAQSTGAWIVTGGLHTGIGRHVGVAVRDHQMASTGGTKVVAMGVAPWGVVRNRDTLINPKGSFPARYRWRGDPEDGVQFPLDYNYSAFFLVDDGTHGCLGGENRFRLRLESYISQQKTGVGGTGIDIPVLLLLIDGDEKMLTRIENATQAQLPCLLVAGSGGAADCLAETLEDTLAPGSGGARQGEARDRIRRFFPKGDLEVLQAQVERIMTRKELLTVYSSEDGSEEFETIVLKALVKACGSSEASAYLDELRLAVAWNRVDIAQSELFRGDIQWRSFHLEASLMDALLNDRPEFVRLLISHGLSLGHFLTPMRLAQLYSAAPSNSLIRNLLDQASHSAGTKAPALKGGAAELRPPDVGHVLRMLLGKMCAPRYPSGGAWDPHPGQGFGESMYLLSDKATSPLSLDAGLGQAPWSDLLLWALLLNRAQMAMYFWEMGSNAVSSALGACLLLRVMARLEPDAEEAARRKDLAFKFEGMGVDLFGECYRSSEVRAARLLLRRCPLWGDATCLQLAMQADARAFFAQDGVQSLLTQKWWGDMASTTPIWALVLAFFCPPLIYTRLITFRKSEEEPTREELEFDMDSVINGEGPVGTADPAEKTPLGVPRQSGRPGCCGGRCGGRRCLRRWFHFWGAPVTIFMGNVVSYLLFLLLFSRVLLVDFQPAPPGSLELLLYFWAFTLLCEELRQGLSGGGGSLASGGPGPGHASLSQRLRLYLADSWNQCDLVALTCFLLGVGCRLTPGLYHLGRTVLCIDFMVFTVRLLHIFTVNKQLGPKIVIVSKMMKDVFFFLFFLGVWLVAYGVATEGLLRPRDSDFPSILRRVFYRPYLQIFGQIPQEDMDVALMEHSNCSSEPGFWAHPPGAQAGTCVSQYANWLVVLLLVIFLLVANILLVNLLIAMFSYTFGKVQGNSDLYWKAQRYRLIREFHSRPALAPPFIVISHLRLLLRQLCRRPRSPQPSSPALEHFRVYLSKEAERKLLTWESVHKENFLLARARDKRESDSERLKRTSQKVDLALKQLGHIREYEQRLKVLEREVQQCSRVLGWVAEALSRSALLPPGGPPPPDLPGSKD
smiles,measurement,setting,value
CCN(CCN)Cc1cccc(Br)c1 [P4],retinal ganglion cell (RGC) degeneration (Brn3a-positive cells),[1],reduces retinal ganglion cell (RGC) degeneration
same,TRPM4-like outwardly rectifying current activated by 10 μM Ca2+,TRPM4 channel,not affected
